Here are results for six compounds from US20220296627A1, “Cytidine Derivatives and Methods of Forming Cytidine Derivatives” (Aenorasis Commercial Company of Pharmaceutical and Medical …, priority 2019, published 2022).

As usually defined, the IC50 is the concentration needed to halve the response being measured. Read a low IC50 as greater potency in that assay.

Data set [1] deals with SW1573/WT wild type non-small lung human cell line. As to the kind of experiment: Cell growth assay (SRB) in SW1573/WT. Format: cell-based. The following applies: for IC50: Homo sapiens, SW1573, SW 1573/WT; for Ratio of IC50 in the presence of dipyridamole / IC50 in the absence of dipyridamole / Ratio of IC50 in the presence of, compared to in the absence of, dipyridamole: SW 1573/WT; for Ratio of IC50 in the presence of dipyridamole / IC50 in the absence of dipyridamole: 4-N-acyl and 4-N-phosphoryl derivatives (Table 5); for Ratio of IC50 in the presence of, compared to in the absence of, dipyridamole: acetylated 4-N-acyl derivatives (Table 7). Here is the method: (§1) Biological activities of the Gemcitabine derivative (which may be referred to as analogues) described above were evaluated with two assays: • 1. Cell growth assay using the SRB assay in cell lines A549/WT, SW1573/WT, PANC-01 and BXPC-3. • 2. MTT assay in human bladder cancer cell line T-24
(§2) The following cell lines were tested: • A549/WT —wild type human lung adenocarcinoma cell line (1) • SW1573/WT —wild type non-small lung human cell line (2), • PANC-01—human pancreatic cancer cell line (3) • BXPC-3 -epithelial human pancreatic adenocarcinoma cells (4).
(§3) Dipyridamole inhibits adenosine uptake by erythrocytes platelets and endothelial cells in vitro and in vivo. Thus, the present inventors recruited dipyridamole as an inhibitor of the nucleoside transporters of the tumour cells to observe the behaviour of the presently described Gemcitabine derivatives.
(§4) From the IC50 of each compound in the presence of dipyridamole, by dividing it with the IC50 of each compound in the absence of dipyridamole, the present inventors calculated a ratio that compared the efficacy of the analogous presence of dipyridamole.
(§5) Ratio=IC50 in the presence of dipyridamole/IC50 in the absence of dipyridamole • FIG. 10. Ratio of IC50 of 4-N-acyl and 4-N-phosphoryl derivatives in the presence of, compared to in the absence of, dipyridamole, in four cell lines

Data set [2] has as its system PANC-01 human pancreatic cancer cell line. The experiment in a line: Cell growth assay (SRB) in PANC-01. The class given is cell-based. The following applies: for Ratio of IC50 in the presence of dipyridamole / IC50 in the absence of dipyridamole: 4-N-acyl and 4-N-phosphoryl derivatives (Table 5); for IC50: Homo sapiens, Pancreatic cancer cell; for Ratio of IC50 in the presence of, compared to in the absence of, dipyridamole: acetylated 4-N-acyl derivatives (Table 7). How it is done: as §1, §2, §3, §4, §5

In data set [3] the test system is A549/WT wild type human lung adenocarcinoma cell line. The experiment in a line: Cell growth assay (SRB) in A549/WT. Format: cell-based. The note with it: for Ratio of IC50 in the presence of dipyridamole / IC50 in the absence of dipyridamole / Ratio of IC50 in the presence of, compared to in the absence of, dipyridamole: A549/WT; for Ratio of IC50 in the presence of dipyridamole / IC50 in the absence of dipyridamole: 4-N-acyl and 4-N-phosphoryl derivatives (Table 5); for IC50: Homo sapiens, A549, A549/WT; for Ratio of IC50 in the presence of, compared to in the absence of, dipyridamole: acetylated 4-N-acyl derivatives (Table 7). Here is the method:
as §1, §2, §3, §4, §5

In data set [4] the test system is BXPC-3 epithelial human pancreatic adenocarcinoma cells. The experiment in a line: Cell growth assay (SRB) in BXPC-3. The class given is cell-based. The following applies: for Ratio of IC50 in the presence of dipyridamole / IC50 in the absence of dipyridamole / Ratio of IC50 in the presence of, compared to in the absence of, dipyridamole: BXPC-3; for Ratio of IC50 in the presence of dipyridamole / IC50 in the absence of dipyridamole: 4-N-acyl and 4-N-phosphoryl derivatives (Table 5); for IC50: Homo sapiens, BXPC-3, BXPC-3; for Ratio of IC50 in the presence of, compared to in the absence of, dipyridamole: acetylated 4-N-acyl derivatives (Table 7). How it is done: as §1, §2, §3, §4, §5

In data set [5] the test system is human bladder cancer cell line T-24. As to the kind of experiment: MTT assay, cell viability of T-24 cells. Format: cell-based. The note with it: 100 μM; for inhibition of cell growth (cell viability, MTT), order of potency: 5000 cells/well; for cell viability (MTT), most potent derivatives: 10000 cells/well. How it is done:
as §1
The cell viability of T-24 bladder cancer cells upon treatment with the Gemcitabine derivatives was evaluated using the MTT assay. T24 cancer cells were cultured in DMEM (Gibco) high glucose supplemented with 10% FBS and 1% Penicillin/Streptomycin (100 U/mL Penicillin and 100 μg/mL Streptomycin), at 37 ° C. in humidified atmosphere of 5% CO2.
For the MTT assay 5000 or 10000 cells were seeded in triplicates in 96-well plates. Stock solutions of each derivative were prepared in DMSO/EtOH (1:1 v/v). Then, the cells were treated and incubated with 100 μM of each compound for 24 or 48 hours. After the completion of the incubation time, 10 μL of MTT solution (5 mg/ml in PBS buffer) were added in each well and incubated for 4 hrs. Finally, to stop the reaction, the supernatant from each well was removed and 100 μL of stop mix solution (20% SDS in 50% dimethyl formamide in water) were added. The plate remained in darkness for 2 h and the absorbance was measured at 540 nm via a microplate ELISA reader (Awareness Technology Inc.) with a reference at 630 nm. The % cell viability for each compound was calculated relatively to the absorbance of the untreated cells (control).
Two sets of experiments were performed at concentrations of 100 μM, and the absorption of formazan was measured after 24 and 48 hours.
Another experiment was conducted with the MTT assay where the compounds were incubated for 48 hours at […] derivative concentration where the number of cells seeded per well was 10000.
For orientation: Tetrazolium assays rely on reduction of a dye to a coloured formazan, in cell work by metabolically active cells.

A short description of data set [6]: Photolysis under UV irradiation (absorption spectrum). The class given is physicochemical. The following applies: 10 μM in MeOH, UV lamp at 366 nm for 240 minutes, room temperature. The text has this:
After ultraviolet irradiation at a specific photo-digested group wavelength in the range from 350 to 500 nm (or greater than 700 nm when utilising two photon excitation), the active form of the encapsulated molecule is released irreversibly. Photo-inclusion has often been performed in vitro for the spatio-temporal control of biological processes and the release of light-induced payload. […] The present inventors believe that this dual strategy is of great value for therapeutic applications while it requires non-invasive and space-time drug activation. In order to show this dual drug release mechanism, the present inventors performed photolysis experiments (FIG. 2).
The spectra of derivative 7 (10 μM) and Gemcitabine (5 μM) were recorded on a Perkin Elmer Lambda 25 spectrometer at room temperature. The samples were solubilized in MeOH grade HPLC grade and irradiated with UV lamp at 366 nm for 240 minutes. The present inventors noticed that in the range of 280-290 nm and 320-330 nm there is a decrease in the absorption intensity and at the same time there is an increase in intensity to 250-270 nm. […] This theory is supported by the increase in the band corresponding to Gemcitabine.

Setting [7] is: 4-N-acyl and 4-N-phosphoryl derivatives (Table 4).
[8] abbreviates: acetylated 4-N-acyl derivatives (Table 6).

In the case of `O=C(Nc1ccn(C2OC(CO)C(O)C2(F)F)c(=O)n1)OCCl` (stereo not drawn) [Derivative 4], the IC50 in data set [1] (setting [7]) was found to be 100 nM; in data set [2] (setting [7]) it was 45 nM; in data set [3] (setting [7]), 100 nM; in data set [4] (setting [7]), 100 nM. The “Ratio of IC50 in the presence of dipyridamole / IC50 in the absence of dipyridamole” value in data set [1] came to 10; in data set [2], 22; in data set [3], 6.3; in data set [4], 4.5. For the same compound, the “inhibition of cell growth (cell viability, MTT), order of potency” value (“inhibition of cell growth” for short) in data set [5] (24 hours) is “greater potency than the parent drug Gemcitabine”; in data set [5] (48 hours), 17>4>11 and then Gemcitabine. Further, the “cell viability (MTT), most potent derivatives” value (“cell viability (MTT)” for short) in data set [5] (48 hours) is “most potent”.
Regarding `Nc1ccn([C@@H]2O[C@H](CO)[C@@H](O)C2(F)F)c(=O)n1` [Gemcitabine, 2′,2′-difluoro-2′-deoxycytidine, reference compound], the IC50 was 11 nM in data set [1] (setting [7]); 9.6 nM in data set [1] (setting [8]); 52 nM in data set [2] (setting [7]); 31 nM in data set [2] (setting [8]); 18 nM in data set [3] (setting [7]); 15 nM in data set [3] (setting [8]). The concentration for half-maximal inhibition (IC50) was 9 nM in data set [4] (setting [7]) and 13 nM in data set [4] (setting [8]). The “Ratio of IC50 in the presence of dipyridamole / IC50 in the absence of dipyridamole” value in data set [1] was 22.7; in data set [2], 3.4; in data set [3] it was 15; in data set [4], 26.6. The “Ratio of IC50 in the presence of, compared to in the absence of, dipyridamole” value (shortened to “Ratio of IC50 … in the absence of, dipyridamole”) is given as 1 in data set [1], 7.4 in data set [2], 18 in data set [3] and 24.3 in data set [4]. In addition, the “inhibition of cell growth” value in data set [5] (48 hours) is 17>4>11 and then Gemcitabine.
Regarding `CCCCOC(=O)Nc1ccn(C2OC(COC(C)=O)C(OC(C)=O)C2(F)F)c(=O)n1` (stereo not drawn) [Derivative 14], the IC50 in data set [1] (setting [8]) came out at 2800 nM; in data set [2] (setting [8]), 6500 nM; in data set [3] (setting [8]) it was 3100 nM; in data set [4] (setting [8]), 1350 nM. Besides, the “Ratio of IC50 … in the absence of, dipyridamole” value in data set [1] is 1.4; in data set [2], 0.9; in data set [3], 0.83; in data set [4], 1.77. The “cell viability (MTT)” value in data set [5] (48 hours) is on record as “most potent”.
`O=C(Nc1ccn(C2OC(CO)C(O)C2(F)F)c(=O)n1)OCc1cn(C2=CC3C=CC(O)=CC3OC2=O)nn1` (stereo not drawn) [Derivative 11, (1-(7-hydroxy-2-oxo-4a,8a-dihydro-2H-chromen-3-yl)-1H-1,2,3-triazol-4-yl) methyl-4-N-Gemcitabine carbamate]: the IC50 in data set [1] (setting [7]) came to 420 nM; in data set [2] (setting [7]), 1600 nM; in data set [3] (setting [7]) it was 430 nM; in data set [4] (setting [7]), 200 nM. In addition, the “Ratio of IC50 in the presence of dipyridamole / IC50 in the absence of dipyridamole” value in data set [1] was 11.9; in data set [2] it was 4.6; in data set [3], 11; in data set [4], 25. In addition, the “inhibition of cell growth” value in data set [5] (24 hours) was “greater potency than the parent drug Gemcitabine”; in data set [5] (48 hours), 17>4>11 and then Gemcitabine. In addition, in data set [5] (48 hours), the “cell viability (MTT)” value was “most potent”.
As for `COc1cc(COC(=O)Nc2ccn(C3OC(CO)C(O)C3(F)F)c(=O)n2)c([N+](=O)[O-])cc1OC` (stereo not drawn) [Derivative 7, (4,5-dimethoxy)-2-nitrobenzyl-(4-N-Gemcitabine) carbamate], the IC50 in data set [1] (setting [7]) was 440 nM; in data set [2] (setting [7]), 1500 nM; in data set [3] (setting [7]) it was 460 nM; in data set [4] (setting [7]), 230 nM. Further, the “Ratio of IC50 in the presence of dipyridamole / IC50 in the absence of dipyridamole” value worked out at 11 in data set [1], 3.3 in data set [2], 14.2 in data set [3] and 13.9 in data set [4]. In data set [6], the “photolysis on irradiation (absorption spectrum over time)” value is reported as “release of Gemcitabine”.
As to `CC(=O)OCC1OC(n2ccc(NC(=O)OCCl)nc2=O)C(F)(F)C1OC(C)=O` (stereo not drawn) [Derivative 17], the IC50 in data set [1] (setting [8]) was found to be 140 nM; in data set [2] (setting [8]), 700 nM; in data set [3] (setting [8]), 2000 nM; in data set [4] (setting [8]) it was 95 nM. Besides, the “Ratio of IC50 … in the absence of, dipyridamole” value in data set [2] was 1.8; in data set [3] it was 2.4; in data set [4], 3.5. In addition, the “inhibition of cell growth” value is “greater potency than the parent drug Gemcitabine” in data set [5] (24 hours); 17>4>11 and then Gemcitabine in data set [5] (48 hours).
